Patent US20150316552A1, “Human Notch Receptor Mutations and Their Use” (OncoMed Pharmaceuticals, Inc., priority 2011, published 2015)
Entries after “also recorded” stand apart in the source; their conditions may differ. Square brackets hold non-standard residues; d marks the D form. Peptide text beside a SMILES is read from it. * marks the point of attachment. Nle = CCCC[C@H](N)C(=O)O; Cbz = O=C(OCc1ccccc1)*

Assays:
[1] = system: T-ALL; settings: O'Neil et al. 2006; cited from earlier work
[2] = system: medulloblastoma; settings: cited from earlier work
[3] = system: OMP-B40 breast tumors; assay: OMP-B40 breast tumor xenograft, tumor growth; type: in vivo, NOD/SCID mice; settings: antibodies 15 mg/kg i.p. twice a week, Taxol 20 mg/kg i.p. once a week; FIG. 3B
Experimental: B40 p3 tumor cells were injected subcutaneously into the left flank of 6-7 week old female NOD/SCID mice (300,000 cells/mouse). Mice were monitored weekly and tumors were allowed to grow until they were approximately 140 mm^3 (78 days after injection). Mice were randomized into five treatment groups and treated with control antibody, or different doses (0.3 mg/kg, 1 mg/kg, 3 mg/kg, 10 mg/kg) of the OMP-52M51 humanized anti-NOTCH1 antibody. The antibodies were dosed i.p. twice a week. Tumor growth was monitored by caliper measurement once a week.
Dissociated OMP-B40 p3 tumor cells were re-suspended in injection media (PBS containing 100 ng/mL VEGF and 100 ng/mL bFGF and 0.5× matrigel) and injected subcutaneously into the left flank of 6-7 week old female NOD/SCID mice (300,000 cells/mouse). Mice were monitored weekly and tumors were allowed to grow until they were approximately 140 mm^3 (78 days after injection). Mice were randomized into four treatment groups (n=10 mice/group) and treated with control antibody, anti-NOTCH1 antibody OMP-52M51, taxol or a combination of OMP-52M51 with taxol. The antibodies were dosed i.p. twice a week at 15 mg/kg and Taxol was dosed i.p. once a week at 20 mg/kg. Tumor growth was monitored by caliper measurement once a week.
As described in Example 2, three hundred thousand OMP-B40 tumor cells were injected subcutaneously and allowed to grow to a mean volume of […] At that point, 78 days after study start, mice were randomized and treatment started. Mice received either 15 mg/kg control antibody or 15 mg/kg OMP-52M51 humanized antibody twice weekly, with or without 20 mg/kg paclitaxel once weekly, all administered by IP injection. Mean±SEM, n=10 animals per group.

[4] = system: Ras-transformed fibroblasts; settings: cited from earlier work
[5] = system: melanoma and Kaposi sarcoma; settings: Curry et al. 2005; cited from earlier work
[6] = system: OMP-C31 colon tumor; assay: OMP-C31 colon tumor model, tumor growth; type: in vivo, Nod-Scid mice; settings: 10 mg/kg IP weekly, p=0.0005; FIG. 15
Experimental: In order to test the effect of the 59R5 anti-NOTCH2/3 antibody on a tumor which harbors an activating mutation in NOTCH3, the OMP-C31 colon tumor model was utilized. 5,000 OMP-C31 colon tumor cells were injected sub-cutaneously in Nod-Scid mice. Dosing was initiated two days after tumor cell injection. Tumor bearing mice (n=10 group) were treated with either control antibody (1B7.11) or 59R5 anti-NOTCH2/3 antibody. Antibodies were dosed by IP injection at 10 mg/kg, weekly, for the duration of the experiment. Tumor volumes were measured on the indicated days. The data is plotted as the mean+SEM (FIG. 15).

[7] = system: OMP-B37 breast tumors; assay: OMP-B37 breast tumor xenograft, tumor growth; type: in vivo, NOD/SCID mice
Experimental: Dissociated lineage depleted OMP-B37 p4 tumor cells were re-suspended in injection media (PBS and 0.5× matrigel) and injected subcutaneously into the right flank of 6-7 week old female NOD/SCID mice (27,000 cells/mouse). Mice were monitored weekly and tumors were allowed to grow until they were approximately 80 mm^3 (49 days after injection). Mice were randomized into two treatment groups (n=11 mice/group) and were dosed once a week with 15 mg/kg control antibody, or 20 mg/kg 59R5, an anti-NOTCH2/3 antibody (FIG. 5). Tumor growth was monitored by caliper measurement once a week.
(§1) Activity of anti-NOTCH2/3 in combination with Taxol in OMP-B37 breast tumor. The anti-NOTCH2/3 antibody 59R5, taxol, or a combination of 59R5 and taxol were administered to OMP-B37 xenograft mice. Initially, B37 p2 tumor cells were injected subcutaneously into the right flank of 6-7 week old female NOD/SCID mice. Mice were monitored weekly and tumors were allowed to grow until they were approximately 80 mm^3 Mice were then administered a control antibody, the 59R5 anti-NOTCH2/3 antibody, taxol or a combination of 59R5 anti-NOTCH2/3 antibody and taxol (FIG. 6). Tumor growth was monitored by caliper measurement once a week.

[8] = system: E-cadherin; assay: E-cadherin expression in treated OMP-B37 tumors; type: in vivo, NOD/SCID mice; settings: OMP-B37 xenograft; FIG. 6B
Experimental: as §1

[9] = system: NOTCH3.ICD; assay: NOTCH3 ICD IHC of treated OMP-B37 breast tumors; type: in vivo, mice; settings: OMP-B37 xenograft; FIG. 17; listed as OMP-59R5
Experimental: NOTCH3.ICD accumulation in OMP-B37 tumor cells comprising a NOTCH3 activating mutation following treatment with a NOTCH2/3 antagonist and/or chemotherapy was examined by IHC. Tumor samples were isolated from the OMP-B37 xenograft mice that were treated with OMP-59R5 anti-NOTCH2/3 antibody, taxol or a combination of OMP-59R5 and taxol as described in the second paragraph of Example 3 above. A NOTCH3 ICD (“N3.ICD”) rabbit monoclonal antibody was developed that binds to the cleavage site of NOTCH3 and detects activated NOTCH3 within the nucleus. NOTCH3 ICD IHC was performed on the tumor samples using the N3.ICD antibody and standard IHC protocols with antigen retrieval in Target Retrieval Solution pH 9 (DAKO), antibody incubation overnight at 4° C. and detection with peroxidase-based EnVision™+ polymer (DAKO) and DAB+ (DAKO). Statistical significance was determined by One Way ANOVA with Bonferroni adjustment.

## C[C@H](NC(=O)Cc1cc(F)cc(F)c1)C(=O)N[C@H](C(=O)OC(C)(C)C)c1ccccc1 [DAPT, N—[N-(3,5-difluorophenacetyl)-L-alanyl]-S-phenylglycine t-butyl ester]
[1]
  cell cycle arrest and apoptosis: induced G0-G1 cell cycle arrest and apoptosis
[2]
  medulloblastoma growth: marked reduction in medulloblastoma growth

## CC(=O)O[C@H]1C(=O)[C@@]2(C)[C@H]([C@H](OC(=O)c3ccccc3)[C@]3(O)C[C@H](OC(=O)[C@H](O)[C@@H](NC(=O)c4ccccc4)c4ccccc4)C(C)=C1C3(C)C)[C@]1(OC(C)=O)CO[C@@H]1C[C@@H]2O [Taxol, paclitaxel, reference compound]
[3]
  reduction in tumor volume versus control: 57.3%

## CCC(C)C(NC(=O)OCc1ccccc1)C(=O)NC(C=O)CC(C)C (stereo not drawn) [IL-X, cbz-IL-CHO] (Cbz-Ile-Leu-aldehyde; configuration not given here)
[4]
  antineoplastic activity: NOTCH1-dependent antineoplastic activity

## CCCC[C@@H](C=O)NC(=O)[C@H](CC(C)C)NC(=O)[C@H](CC(C)C)NC(=O)OCc1ccccc1 [z-Leu-leu-Nle-CHO] (Cbz-Leu-Leu-[Nle]-aldehyde)
[5]
  tumor growth: suppress tumor growth

## 59R5: anti-NOTCH2/3 antibody, ATCC PTA-10170; heavy chain variable region SEQ ID NO:30, light chain variable region SEQ ID NO:32
[6]
  tumor growth relative to control antibody treated group: inhibited OMP-C31 tumor growth
[7]; 20 mg/kg once a week, after 5 weeks of treatment, FIG. 5
  tumor volume reduction: 56.6%
[7]; 59R5, taxol or combination study, FIG. 6A
  tumor volume in xenografted animals (in words): greatly decreased tumor volume
[7]; FIG. 5
  tumor volume compared to control antibody (in words): greatly decreased tumor volume
[8]
  expression of E-cadherin: increases expression of E-cadherin
[9]
  NOTCH3.ICD accumulation relative to PBS treated cells: significantly inhibited NOTCH3.ICD accumulation; also recorded: blocks NOTCH3.ICD accumulation
